Results on one compound are retold here after patent US6733759B2, “Nutrient formulation and process for enhancing the health, livability, cumulative weight gain or feed efficiency in poultry and other animals” (Novus International, Inc., priority 1995, dated 2004).

The experiment concerns IgA in the bile. Briefly: IgA in bile by indirect ELISA in birds given 1027 with or without adjuvants. It is filed as in vivo, chickens. As to conditions: day 21 after oral vaccine and adjuvant in 1027. An excerpt:
IgA is the antibody class associated with resistance to diseases which attack the intestinal mucosa, such as coccidiosis.
The data presented in FIG. 5 were obtained by indirect enzyme linked immunosorbent assay (ELISA) using monoclonal mouse anti-chicken IgA as the first antibody, polyclonal goat anti-chicken IgA as the second antibody, and biotin-conjugated anti-goat immunoglobulin for detection. Samples were read on an automated ELISA plate reader, and are corrected for differences in dilution.
(In general: ELISA stands for enzyme-linked immunosorbent assay.)

Consider `c1ccc([C@H]2CN3CCSC3=N2)cc1` [levamisole], for which the “IgA in the bile vs 1027 alone” value was “higher day 21 biliary IgA levels”.
